The record followed here is patent publication US12344610B2, “APOL1 inhibitors and methods of use” (Maze Therapeutics, Inc., priority 2022, dated 2025).

Common to all, as to assay type: cell-based
What all share (conditions): geometric mean of at least 2 assay runs, † = single assay run

Assay [1] has as its system Trypanosoma brucei Lister 427 VSG221 with APOL1 G1 recombinant protein. The assay is described as follows: APOL1 G1 trypanosome cell rescue assay (Example B5). In a few lines:
(§1)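 Recombinant APOL1 protein, dispensed from a 2 μg/mL stock, and 250 T. brucei per well were co-incubated with test compound (0.4% DMSO) for 20 h. Viability: CellTiter-Glo luminescence.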

In assay [2] the test system is Trypanosoma brucei Lister 427 VSG221 with APOL1 G0 recombinant protein. The assay is described as follows: APOL1 G0 trypanosome cell rescue assay (Example B5). Put shortly: as §1
Assay [3] relates to HEK293 cells overexpressing APOL1 G2. Briefly: APOL1 G2 HEK293 cell rescue assay (reversal of cell death caused by overexpression of APOL1). Put shortly: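 Each compound tested in duplicate wells on one plate per run, with values usually the geometric mean across at least two runs on different days, occasionally from one run only. Read-out: concentration giving half-maximal rescue of APOL1 G2 overexpression-induced death of HEK293 cells.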

Where [4] appears, read: Trypanosoma brucei, 20 h, read-out: APOL1 G1 Trypanosome Rescue EC50, Trypanosoma brucei Lister 427 VSG221 with APOL1 G1 recombinant protein, 20 hours, CellTiter-Glo.
The mark [5] stands for this setting: Trypanosoma brucei, 20 h, read-out: APOL1 G0 Trypanosome Rescue EC50, Trypanosoma brucei Lister 427 VSG221 with APOL1 G0 recombinant protein, 20 hours, CellTiter-Glo.
The mark [6] stands for this setting: Homo sapiens, HEK293, HEK293 overexpressing APOL1 G2.
[7] abbreviates: read-out: APOL1 G0 Trypanosome Rescue EC50, Trypanosoma brucei Lister 427 VSG221 with APOL1 G0 recombinant protein, 20 hours, CellTiter-Glo.

SMILES strings stand for the structures. pEC50: −log10 of the molar value. Read-outs that look alike come from different tables or passages of the source.

Take `CC(c1c(F)cc(OCCN2CCC3(CC2)C(=O)Nc2ccc(Cl)cc23)cc1F)S(C)(=O)=O` (single isomer, unassigned) [Compound 142, (S) or (R)-5-chloro-1′-{2-[3,5-difluoro-4-(1-methanesulfonylethyl)phenoxy]ethyl}-1,2-dihydrospiro[indole-3,4′-piperidin]-2-one]: the figures for the pEC50 in assay [1] (setting [4]), in assay [2] (setting [5]) and in assay [3] (setting [6]) were 7.01, 7.20 and 7.32, respectively.
In the case of `CS(=O)(=O)c1ccc(OCCN2CCC3(CC2)C(=O)Nc2ccc(C#N)cc23)cc1C(F)(F)F` [Compound 107, 1′-{2-[4-methanesulfonyl-3-(trifluoromethyl)phenoxy]ethyl}-2-oxo-1,2-dihydrospiro[indole-3,4′-piperidine]-5-carbonitrile], the pEC50 (as a rule, −log10 of the EC50, conventionally taken in molar units) is 7.03 in assay [1] (setting [4]), 7.24 in assay [2] (setting [5]) and 7.51 in assay [3] (setting [6]).
In the case of `O=C1Nc2ccc(Cl)cc2C12CCN(CCOc1ccc(C3CCCS3(=O)=O)cc1)CC2` (single isomer, unassigned) [Compound 176, (S) or (R)-2-[4-(2-{5-chloro-2-oxo-1,2-dihydrospiro[indole-3,4′-piperidin]-1′-yl}ethoxy)phenyl]-1λ^6-thiolane-1,1-dione], the figures for the negative-log EC50 (pEC50) in assay [1] (setting [4]), in assay [2] (setting [7]) and in assay [3] (setting [6]) were 6.75, 6.92 and 7.33, respectively.
Regarding `CN=S(C)(=O)c1ccc(OCCN2CCC3(CC2)C(=O)Nc2ccc(C#N)cc23)cc1` (stereo not drawn) [Compound 150, 1′-(2-{4-[methyl(methylimino)oxo-λ^6-sulfanyl]phenoxy}ethyl)-2-oxo-1,2-dihydrospiro[indole-3,4′-piperidine]-5-carbonitrile], the results for the pEC50 in assay [1] (setting [4]), in assay [2] (setting [5]) and in assay [3] (setting [6]) were 5.64, 5.84 and 6.64, respectively.
For `N#Cc1ccc2c(c1)C1(CCN(CCOc3ccc4c(c3)CCNS4(=O)=O)CC1)C(=O)N2` [Compound 168, 1′-{2-[(1,1-dioxo-3,4-dihydro-2H-1λ^6,2-benzothiazin-6-yl)oxy]ethyl}-2-oxo-1,2-dihydrospiro[indole-3,4′-piperidine]-5-carbonitrile], the pEC50 is 6.20 in assay [1] (setting [4]), 6.30 in assay [2] (setting [5]) and 6.46 in assay [3] (setting [6]).
For `O=C1CCc2cc(OCCN3CCC4(CC3)C(=O)Nc3ccc(Cl)cc34)ccc2N1[C@H]1C[C@@H](O)C1` [Compound 114, 5-chloro-1′-[2-({2-oxo-1-[(cis)-3-hydroxycyclobutyl]-1,2,3,4-tetrahydroquinolin-6-yl}oxy)ethyl]-1,2-dihydrospiro[indole-3,4′-piperidin]-2-one], in that order: 6.98, 6.97 and 7.33.
The matching figures for `CN1c2ccc(OCCN3CCC4(CC3)C(=O)Nc3ccc(Cl)cc34)cc2CCS1(=O)=O` [Compound 103, 6-(2-{5-chloro-2-oxo-1,2-dihydrospiro[indole-3,4′-piperidin]-1′-yl}ethoxy)-1-methyl-3,4-dihydro-1H-2λ^6,1-benzothiazine-2,2-dione]: 6.77, 6.95 and 7.31.
For `C[C@@H](COc1ccc(S(C)(=O)=O)cc1)N1CCC2(CC1)C(=O)Nc1ccc(Cl)cc12` (single isomer, unassigned) [Compound 10], in that order: 6.45, 6.45 and 7.04.
For `CN=S(C)(=O)c1ccc(OCCN2CCC3(CC2)C(=O)Nc2ccc(Cl)cc23)cc1` (single isomer, unassigned) [Compound 148, (S) or (R)-5-chloro-1′-(2-{4-[methyl(methylimino)oxo-λ^6-sulfanyl]phenoxy}ethyl)-1,2-dihydrospiro[indole-3,4′-piperidin]-2-one], the values for the negative-log EC50 (pEC50) in assay [1] (setting [4]), in assay [2] (setting [5]) and in assay [3] (setting [6]) were 6.70, 6.85 and 6.97, respectively.
`CN(c1c(F)cc(OCCN2CCC3(CC2)C(=O)Nc2ccc(C#N)cc23)cc1F)S(C)(=O)=O` [Compound 128, N-[4-(2-{5-cyano-2-oxo-1,2-dihydrospiro[indole-3,4′-piperidin]-1′-yl}ethoxy)-2,6-difluorophenyl]-N-methylmethanesulfonamide]: the negative logarithm of the EC50 (pEC50) in assay [1] (setting [4]) is 6.42; in assay [2] (setting [5]) it was 6.57; in assay [3] (setting [6]), 7.37.
The matching figures for `CS(=O)(=O)C1(c2ccc(OCCN3CCC4(CC3)C(=O)Nc3ccc(C#N)cc34)cc2)CC1` [Compound 101, 1′-{2-[4-(1-methanesulfonylcyclopropyl)phenoxy]ethyl}-2-oxo-1,2-dihydrospiro[indole-3,4′-piperidine]-5-carbonitrile]: 6.70, 6.71 and 7.30.
With `O=C1NCC2c3ccc(OCCN4CCC5(CC4)C(=O)Nc4ccc(Cl)cc45)cc3CCN12` (single isomer, unassigned) [Compound 117, (R) or (S)-5-chloro-1′-[2-({3-oxo-1H,2H,3H,5H,6H,10bH-imidazo[4,3-a]isoquinolin-8-yl}oxy)ethyl]-1,2-dihydrospiro[indole-3,4′-piperidin]-2-one], the pEC50 in assay [1] (read-out: APOL1 G1 Trypanosome Rescue EC50, Trypanosoma brucei Lister 427 VSG221 with APOL1 G1 recombinant protein, 20 hours, CellTiter-Glo) was 6.37; in assay [2] (setting [7]), 6.51; in assay [3] (HEK293 overexpressing APOL1 G2), 7.09.
For `CS(=O)(=O)c1ccc(OCCN2CCC3(CC2)C(=O)Nc2ccc(C#N)cc23)cc1OC(F)F` [Compound 164, 1′-{2-[3-(difluoromethoxy)-4-methanesulfonylphenoxy]ethyl}-2-oxo-1,2-dihydrospiro[indole-3,4′-piperidine]-5-carbonitrile], the pEC50 in assay [1] (setting [4]) was 6.46; in assay [2] (setting [5]) it was 6.68; in assay [3] (setting [6]) it was 6.99.
The matching figures for `O=C1CCc2cc(OCCN3CCC4(CC3)C(=O)Nc3ccc(Cl)cc34)ccc2N1CCO` [Compound 162, 5-chloro-1′-(2-{[1-(2-hydroxyethyl)-2-oxo-1,2,3,4-tetrahydroquinolin-6-yl]oxy}ethyl)-1,2-dihydrospiro[indole-3,4′-piperidin]-2-one]: 6.85, 6.84 and 7.24.
The matching figures for `CC(c1c(F)cc(OCCN2CCC3(CC2)C(=O)Nc2ccc(C#N)cc23)cc1F)S(C)(=O)=O` (single isomer, unassigned) [Compound 138, (S) or (R)-1′-{2-[3,5-difluoro-4-(1-methanesulfonylethyl)phenoxy]ethyl}-2-oxo-1,2-dihydrospiro[indole-3,4′-piperidine]-5-carbonitrile]: 6.23, 6.49 and 7.11.
For `Cn1c(=O)oc2cc(OCCN3CCC4(CC3)C(=O)Nc3ccc(C#N)cc34)ccc21` [Compound 132, 1′-{2-[(3-methyl-2-oxo-2,3-dihydro-1,3-benzoxazol-6-yl)oxy]ethyl}-2-oxo-1,2-dihydrospiro[indole-3,4′-piperidine]-5-carbonitrile], in that order: 6.14, 6.28 and 6.82.
For the molecule `N#Cc1ccc2c(c1)C1(CCN(CCOc3ccc(S(=O)(=O)C(F)F)cc3)CC1)C(=O)N2` [Compound 113, 1′-[2-(4-difluoromethanesulfonylphenoxy)ethyl]-2-oxo-1,2-dihydrospiro[indole-3,4′-piperidine]-5-carbonitrile], the pEC50 in assay [1] (setting [4]) was 6.81; in assay [2] (setting [5]) it was 6.91; in assay [3] (setting [6]), 7.08.
